In paper PMC6784244 (Toxins, 2019):
In brackets after ≈: the same amount, converted by molar mass.

Columns and labels:
[1] = lipid monolayer at air-water interface on PBS pH 7.4, peptide 1 µM, initial pressure 10-30 mN/m, extrapolated to delta pressure 0
Method: Peptide–lipid interaction was evaluated using reconstituted lipid monolayer at the air–water interface as previously described. Pure prokaryotic and eukaryotic lipids used were: POPC (1-palmitoyl-2-oleoyl-glycero-3-phosphocholine), POPE (1-palmitoyl-2-oleoyl-sn-glycero-3-phosphoethanolamine), POPG (1-palmitoyl-2-oleoyl-sn-glycero-3-phospho-(1’-rac-glycerol), and cardiolipin, all from Avanti Polar Lipid (Alabama, USA). LTA (Lipoteichoic acid from B. subtilis) was obtained from Invivogen SAS (Toulouse, France). Pure lipids were reconstituted in chloroform:methanol (2:1, v:v) at 1 mg/mL and stored at −20 °C under nitrogen. The interaction and insertion of the ENN and BEA into lipids were evaluated through the measurement of their critical pressure of insertion as previously described. Briefly, lipids were spread using a 50 µL Hamilton’s syringe at the surface of 800 µL of sterile PBS creating a lipid monolayer at the air–water interface. Lipids were added until the surface pressure reached the desired value. After 5–10 min of incubation allowing evaporation of the solvent and stabilization of the initial surface pressure, 8 µL of ENN or BEA diluted in sterile PBS at 100 µM were injected into the 800 µL sub-phase of PBS under the lipid monolayer (pH 7.4, volume 800 µL) using a 10 µL Hamilton syringe giving a final concentration of peptides of 1 µM, preliminary experiments having shown that this concentration gave optimal insertion. The variation of the surface pressure caused by peptide injection was then continuously monitored using a fully automated microtensiometer (µTROUGH SX, Kibron Inc., Helsinki, Finland) until reaching equilibrium (maximal surface pressure increase being usually obtained after 15–25 min). The critical pressure of insertion of each peptide was determined by changing the initial pressure of lipid monolayer (from 10 and 30 mN/m) and measuring the variation of pressure caused by the insertion of the peptide. The critical pressure of insertion of each peptide in a particular lipid was determined graphically and calculated as the theoretical value of initial pressure of lipid monolayer not permissive to peptide insertion, i.e., causing a variation of pressure equal to 0 mN/m.

[2] = tested on: Candida albicans (DSMZ 10697); conditions: DSMZ 10697, 24 h, pH 7
[3] = tested on: BEAS-2B (human normal lung epithelial cells); assay type: cell-based; conditions: 48 h exposure, 0-100 µM, resazurin fluorescence; means ± S.D, n = 3; read-out: IC50 on cell viability, BEAS-2B
Method: (§1) The impact of ENN or BEA on the viability of human cells were evaluated as previously described. Cells used were human normal lung epithelial cells BEAS-2B (ATCC CRL-9609), human intestinal cell line Caco-2 (ATCC HTB-37), human normal epidermal keratinocytes (HEK) (from Lonza), human liver cell line HEPG2 (ATCC HB-8065), human normal endothelial cells (Human Umbilical Vein Endothelial Cells, HUVEC) (from Sigma-Aldrich, Lyon, France), and human gastric cell line N87 (ATCC CRL-5822). BEAS-2B, Caco-2 and HEPG2 cells were cultured in DMEM supplemented with 10% fetal calf serum (FCS), 1% L-glutamine, and 1% antibiotics (all from Invitrogen (Carlsbad, CA, USA). N87 cells were cultured in RPMI media supplemented with 10% fetal calf serum (FCS), 1% L-glutamine, and 1% antibiotics (all from Invitrogen, Carlsbad, CA, USA). HEK and HUVEC cells were cultured in specific medium (from Lonza and Sigma Aldrich, respectively). Cells were routinely grown on 25 cm^2 flasks and maintained in a 5% CO2 incubator at 37 °C. For toxicity assay, human cells grown on 25 cm^2 flasks were detached using trypsin-EDTA solution (from Thermofisher), counted using Malassez counting chamber, diluted in appropriate culture media, and seeded into 96-well cell culture plates (Greiner bio-one, Paris, France) at approximately 10^4 cells per well. The cells were left to grow for 48–72 h at 37 °C in a 5% CO2 incubator until they reached confluence. Media from wells was then aspirated and cells were treated with 100 µL of appropriate culture media containing increasing concentrations of ENN or BEA (from 0 to 100 µM, 1:2 serial dilution). […] The plates were then incubated at 37 °C for 48 h. Resazurin-based in vitro toxicity assay kit (from Sigma-Aldrich, Lyon, France) was then used to assess the viability of the cells following manufacturer’s instructions. Briefly, resazurin stock solution was diluted 1:10 in sterile PBS containing calcium and magnesium (PBS^++, pH 7.4). Plates were aspirated and 100 µL of the diluted solution were added per wells. After 4 h incubation at 37 °C, fluorescence intensity was measured using microplate reader (Biotek, Synergy Mx, Colmar, France) with an excitation wavelength of 530 nm and an emission wavelength of 590 nm. The fluorescence values were normalized by the controls (untreated cells) and expressed as percentage of cell viability. The IC50 values of ENN or BEA (i.e., the concentrations causing a reduction of 50% of the cell viability) were calculated using GraphPad® Prism 7 software (San Diego, CA, USA). Experiments were conducted in triplicate (n = 3).

[4] = tested on: HEPG2 (human liver cell line); assay type: cell-based; conditions: 48 h exposure, 0-100 µM, resazurin fluorescence; means ± S.D, n = 3; read-out: IC50 on cell viability, HEPG2
Method: as §1

[5] = tested on: Caco-2 (human intestinal cell line); assay type: cell-based; conditions: 48 h exposure, 0-100 µM, resazurin fluorescence; means ± S.D, n = 3; read-out: IC50 on cell viability, Caco-2
Method: as §1

[6] = tested on: HUVEC (human normal endothelial cells); assay type: cell-based; conditions: 48 h exposure, 0-100 µM, resazurin fluorescence; means ± S.D, n = 3; read-out: IC50 on cell viability, HUVEC
Method: as §1

[7] = tested on: F. oxysporum (DSMZ 62316); conditions: DSMZ 62316, pH 7
[8] = tested on: Escherichia coli (ATCC 8739)
[9] = tested on: Stachybotrys chartarum (DSMZ 2144); conditions: DSMZ 2144, pH 7
[10] = tested on: F. verticillioides (DSMZ 62264); conditions: DSMZ 62264, pH 7
[11] = tested on: Vancomycin-resistant Enterococcus faecalis (DSMZ 13591)
[12] = tested on: Methicillin-resistant S. aureus strain MRSA USA300
[13] = tested on: Aspergillus flavus (DSMZ 1959); conditions: DSMZ 1959, pH 7

CC[C@H](C)[C@H]1C(=O)O[C@H](C(C)C)C(=O)N(C)[C@@H]([C@@H](C)CC)C(=O)O[C@H](C(C)C)C(=O)N(C)[C@@H]([C@@H](C)CC)C(=O)O[C@H](C(C)C)C(=O)N1C [ENN A]
critical pressure of insertion, POPC [1]: 40.28 mN/m
critical pressure of insertion, POPE [1]: 38.12 mN/m
MIC, C. albicans [2]: 1.5 µM (≈ 1.02 µg/mL)
IC50 [3]: 5.7 ± 1.2 µM
IC50 [4]: 3 ± 0.7 µM
IC50 [5]: 1100 ± 200 nM
IC50 [6]: 2.8 ± 0.6 µM
MIC, F. oxysporum [7]: >100 µM
MIC, E. coli [8]: >100 µM
MIC, S. chartarum [9]: >100 µM
MIC, F. verticillioides [10]: >100 µM
MIC, E. faecalis [11]: 3.12 µM (≈ 2.13 µg/mL)
MIC, S. aureus MRSA [12]: 6.25 to 12.5 µM
MIC, A. flavus [13]: >100 µM

CC[C@H](C)[C@H]1C(=O)O[C@H](C(C)C)C(=O)N(C)[C@@H]([C@@H](C)CC)C(=O)O[C@H](C(C)C)C(=O)N(C)[C@@H](C(C)C)C(=O)O[C@H](C(C)C)C(=O)N1C [ENN A1]
critical pressure of insertion, POPC [1]: 38.06 mN/m
critical pressure of insertion, POPE [1]: 34.38 mN/m
MIC, C. albicans [2]: 1.5 µM (≈ 1 µg/mL)
IC50 [3]: 6.4 ± 1.5 µM
IC50 [4]: 5.6 ± 1.1 µM
IC50 [5]: 2700 ± 500 nM
IC50 [6]: 4.6 ± 0.9 µM
MIC, F. oxysporum [7]: >100 µM
MIC, E. coli [8]: >100 µM
MIC, S. chartarum [9]: >100 µM
MIC, F. verticillioides [10]: >100 µM
MIC, E. faecalis [11]: 6.25 µM (≈ 4.17 µg/mL)
MIC, S. aureus MRSA [12]: 12.5 to 25 µM
MIC, A. flavus [13]: >100 µM

CC(C)[C@H]1C(=O)O[C@H](C(C)C)C(=O)N(C)[C@@H](C(C)C)C(=O)O[C@H](C(C)C)C(=O)N(C)[C@@H](C(C)C)C(=O)O[C@H](C(C)C)C(=O)N1C [ENN B]
critical pressure of insertion, POPC [1]: 32.92 mN/m
critical pressure of insertion, POPE [1]: 30.15 mN/m
MIC, C. albicans [2]: 6.25 µM (≈ 4 µg/mL)
IC50 [3]: 43.7 ± 7.7 µM
IC50 [4]: 3.4 ± 0.7 µM
IC50 [5]: 4600 ± 1300 nM
IC50 [6]: 17.3 ± 3.3 µM
MIC, F. oxysporum [7]: >100 µM
MIC, E. coli [8]: >100 µM
MIC, S. chartarum [9]: >100 µM
MIC, F. verticillioides [10]: >100 µM
MIC, E. faecalis [11]: >100 µM
MIC, S. aureus MRSA [12]: >100 µM
MIC, A. flavus [13]: >100 µM

CC[C@H](C)[C@H]1C(=O)O[C@H](C(C)C)C(=O)N(C)[C@@H](C(C)C)C(=O)O[C@H](C(C)C)C(=O)N(C)[C@@H](C(C)C)C(=O)O[C@H](C(C)C)C(=O)N1C [ENN B1]
critical pressure of insertion, POPC [1]: 36.19 mN/m
critical pressure of insertion, POPE [1]: 31.87 mN/m
MIC, C. albicans [2]: 3.12 µM (≈ 2.04 µg/mL)
IC50 [3]: 12.7 ± 2.8 µM
IC50 [4]: 5.6 ± 1.4 µM
IC50 [5]: 3100 ± 500 nM
IC50 [6]: 7 ± 1.1 µM
MIC, F. oxysporum [7]: >100 µM
MIC, E. coli [8]: >100 µM
MIC, S. chartarum [9]: >100 µM
MIC, F. verticillioides [10]: >100 µM
MIC, E. faecalis [11]: 12.5 µM (≈ 8.17 µg/mL)
MIC, S. aureus MRSA [12]: 25 µM (≈ 16.3 µg/mL)
MIC, A. flavus [13]: >100 µM
